# Values quoted from earlier work in patent US20040147461A1, “Motilide compounds” (priority 2000, published 2004).
# How the values were obtained:
# [1] = biological target: motilin receptor (Homo sapiens, UniProt O43193); conditions: statement in words
# [2] = statement in words
# motilin receptor, sequence (O43193 whole entry, species assumed): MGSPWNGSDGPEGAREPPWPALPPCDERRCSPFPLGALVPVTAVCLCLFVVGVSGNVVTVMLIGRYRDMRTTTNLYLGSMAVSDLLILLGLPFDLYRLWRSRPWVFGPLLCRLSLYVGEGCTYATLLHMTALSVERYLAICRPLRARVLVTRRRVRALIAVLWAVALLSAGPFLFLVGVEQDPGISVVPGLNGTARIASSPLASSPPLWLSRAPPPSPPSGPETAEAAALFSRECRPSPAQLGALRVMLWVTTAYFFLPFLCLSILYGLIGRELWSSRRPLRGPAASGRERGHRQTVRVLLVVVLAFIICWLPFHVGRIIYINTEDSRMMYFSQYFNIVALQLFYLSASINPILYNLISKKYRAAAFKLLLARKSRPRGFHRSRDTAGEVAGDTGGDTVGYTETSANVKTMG
SMILES,motilin agonist activity [1],antimicrobial activity [2]
CC[C@H]1OC(=O)[C@H](C)[C@@H](O[C@H]2C[C@@](C)(OC)[C@@H](O)[C@H](C)O2)[C@H](C)[C@@H](O[C@@H]2O[C@H](C)C[C@H](N(C)C)[C@H]2O)[C@](C)(O)C[C@@H](C)C(=O)[C@H](C)[C@@H](O)[C@]1(C)O [erythromycin A],motilin agonists,–
"CC[C@H]1OC(=O)[C@H](C)[C@@H](O[C@H]2C[C@@](C)(OC)[C@@H](O)[C@H](C)O2)[C@H](C)[C@@H](O[C@@H]2O[C@H](C)C[C@H](N(C)C)[C@H]2O)[C@@]2(C)CC(C)=C(O2)[C@H](C)[C@@H](O)[C@]1(C)O [enol ether, 8,9-anhydroerythromycin A 6,9-hemiacetal]",–,does not also posses antimicrobial activity
